Source: patent publication US20220315554A1, “COMPOUNDS COMPRISING A […] LIGAND AND USE THEREOF” (priority 2019, published 2022)
Numbered stars: 1 amine (or outer) side, 2 acyl side, 3 side chain; on linkers, the order of the positions; unused ones are H or OH. Bridge positions count the residues as written; N and C are the ends. Square brackets hold non-standard residues; d marks the D form. Peptide text beside a SMILES is read from it. * marks the point of attachment. X19 = NC(=O)[C@H](CCCCNC(=O)CN1CCN(CC(=O)O)CCN(CC(=O)O)CCN(CC(=O)O)CC1)NC(=O)CCC(=O)NCCCOCCOCCNCCCN*; X22 = O=C1CN2CCN3CCN(CC(=O)N4CCN(Cc5cc(C[*:1])cc(C[*:2])c5)CC4)CCN(CC2)CC(=O)[O][Lu]([O]1)[O]C(=O)C3; X8 = O=C1CN2CCN3CCN(CC(=O)N4CCN(Cc5cc(C[*:1])cc(C[*:2])c5)CC4)CCN(CC2)CC(=O)[O][Ga]([O]1)[O]C(=O)C3; X13 = O=C(O)CN1CCN(CC(=O)O)CCN(CC(=O)NCCSCc2cc(CSCCN[*:2])cc(C[*:1])c2)CCN(CC(=O)O)CC1; NH(CH2)5NHDOTA = O=C(O)CN1CCN(CC(=O)O)CCN(CC(=O)NCCCCCN*)CCN(CC(=O)O)CC1; X2 = O=C(O)CN1CCN(CC(=O)O)CCN(CC(=O)NCCCOCCOCCOCCCN*)CCN(CC(=O)O)CC1; mXylylene = c1cc(C[*:1])cc(C[*:2])c1; Pentanesulfonyl = CCCCCS(=O)(=O)*; Suc = O=C(CCC(=O)[*:2])[*:1]; Nle = CCCC[C@H](N)C(=O)O; Hexanoyl = CCCCCC(=O)*

Tests used:
[1] = molecular target: T1, FAP-expressing human WI-38 fibroblasts (Homo sapiens, UniProt Q12884); experiment: Competitive FACS binding assay; settings: pIC50 Category (FACS), competition with 3 nM Cy5-labeled compound, WI-38 fibroblasts, 4° C., 1 hour
T1 construct: FAP-expressing human WI-38 fibroblasts (ECACC) were cultured in EMEM; host or cells: WI-38 human fibroblasts
T1 sequence (Q12884 1-760): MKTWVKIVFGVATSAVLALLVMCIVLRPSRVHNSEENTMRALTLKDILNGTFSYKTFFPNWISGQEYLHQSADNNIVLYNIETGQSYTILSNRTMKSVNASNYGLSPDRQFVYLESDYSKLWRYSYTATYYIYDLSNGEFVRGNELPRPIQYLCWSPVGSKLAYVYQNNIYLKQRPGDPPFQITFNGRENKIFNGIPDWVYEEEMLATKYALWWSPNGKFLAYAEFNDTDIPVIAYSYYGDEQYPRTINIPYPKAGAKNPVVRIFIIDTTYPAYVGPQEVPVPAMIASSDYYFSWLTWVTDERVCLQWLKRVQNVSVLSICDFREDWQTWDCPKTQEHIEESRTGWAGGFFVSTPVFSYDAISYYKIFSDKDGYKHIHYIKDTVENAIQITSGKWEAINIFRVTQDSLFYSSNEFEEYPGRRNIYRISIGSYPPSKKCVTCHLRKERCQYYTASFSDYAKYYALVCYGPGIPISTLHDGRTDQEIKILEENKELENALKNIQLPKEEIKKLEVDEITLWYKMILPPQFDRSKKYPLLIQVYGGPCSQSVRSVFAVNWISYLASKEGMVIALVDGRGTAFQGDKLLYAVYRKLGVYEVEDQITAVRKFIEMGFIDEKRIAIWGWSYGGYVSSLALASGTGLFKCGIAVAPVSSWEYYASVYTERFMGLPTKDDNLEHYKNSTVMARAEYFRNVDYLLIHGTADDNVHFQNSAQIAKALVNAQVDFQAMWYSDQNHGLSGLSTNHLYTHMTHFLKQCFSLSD
Procedure: Cells were analyzed in an Attune NxT flow cytometer. […]

[2] = molecular target: T2, Human recombinant FAP (Homo sapiens, UniProt Q12884); experiment: Surface plasmon resonance (Biacore) assay; type: binding
T2 sequence (Q12884 1-760): T1 sequence (Q12884 1-760)

[3] = molecular target: T2, Human recombinant FAP; experiment: FRET-based FAP protease activity assay; type: biochemical; parameters: purchased R&D systems 3715-SE; settings: pIC50 Category (Activity), recombinant human FAP, FRET substrate, 37° C.

CCCCCC(=O)N[C@H]1CSCc2cccc(c2)CSC[C@@H](C(=O)N[C@@H](CC(=O)O)C(=O)NCCCNCCOCCOCCCNC(=O)CCC(=O)N[C@@H](CCCCNC(=O)CN2CCN(CC(=O)O)CCN(CC(=O)O)CCN(CC(=O)O)CC2)C(N)=O)NC(=O)[C@H](Cc2ccccc2)NC(=O)[C@H](CCC(=O)O)NC(=O)[C@H]([C@@H](C)O)NC(=O)[C@@H]2CCCN2C(=O)[C@@H]2CCCN2C1=O [3BP-3396, Hex-[Cys(3MeBn)-Pro-Pro-Thr-Glu-Phe-Cys]-Asp-Ttds-Lys(DOTA)-NH2] (Hexanoyl-CPPTEFCD-X19; linker 1-7 via mXylylene)
< 10 nM: IC50 [1] | Kd [2] | IC50 [3]

CCCC[C@H](NC(=O)CCC(=O)NCCCOCCOCCOCCCNC(=O)CN1CCN(CC(=O)O)CCN(CC(=O)O)CCN(CC(=O)O)CC1)C(=O)N[C@H]1CSCc2cccc(c2)CSC[C@@H](C(=O)N[C@@H](CC(=O)O)C(N)=O)NC(=O)[C@H](Cc2ccccc2)NC(=O)[C@H](CCC(N)=O)NC(=O)[C@H]([C@@H](C)O)NC(=O)[C@@H]2CCCN2C(=O)[C@@H]2CCCN2C1=O [3BP-3401, DOTA-Ttds-Nle-[Cys(3MeBn)-Pro-Pro-Thr-Gln-Phe-Cys]-Asp-NH2] ({X2-Suc}-[Nle]CPPTQFCD-NH2; linker 2-8 via mXylylene)
< 10 nM: IC50 [1] | Kd [2] | IC50 [3]

CCCCCC(=O)N[C@H]1CSCc2cccc(c2)CSC[C@@H](C(=O)N[C@@H](CC(=O)O)C(=O)NCCCCCNC(=O)CN2CCN(CC(=O)O)CCN(CC(=O)O)CCN(CC(=O)O)CC2)NC(=O)[C@H](Cc2ccccc2)NC(=O)[C@H](CCC(N)=O)NC(=O)[C@H]([C@@H](C)O)NC(=O)[C@@H]2CCCN2C(=O)[C@@H]2CCCN2C1=O [3BP-3403, Hex-[Cys(3MeBn)-Pro-Pro-Thr-Gln-Phe-Cys]-Asp-Ape(DOTA)] (Hexanoyl-CPPTQFCD-{NH(CH2)5NHDOTA}; linker 1-7 via mXylylene)
< 10 nM: IC50 [1] | Kd [2] | IC50 [3]

CCCCCC(=O)N[C@H]1CSCc2cccc(c2)CSC[C@@H](C(=O)N[C@@H](CCCCNC(=O)CCC(=O)NCCCOCCOCCOCCCNC(=O)CN2CCN(CC(=O)O)CCN(CC(=O)O)CCN(CC(=O)O)CC2)CC(=O)O)NC(=O)[C@H](Cc2ccccc2)NC(=O)[C@H](CCC(N)=O)NC(=O)[C@H]([C@@H](C)O)NC(=O)[C@@H]2CCCN2C(=O)[C@@H]2CCCN2C1=O [3BP-3489, Hex-[Cys(3MeBn)-Pro-Pro-Thr-Gln-Phe-Cys]-Bhk(DOTA-Ttds)-OH]
< 10 nM: IC50 [1] | Kd [2] | IC50 [3]

CCCCCS(=O)(=O)N[C@H]1CSCc2cccc(c2)CSC[C@@H](C(=O)N[C@@H](CC(=O)O)C(N)=O)NC(=O)[C@H](Cc2ccccc2)NC(=O)[C@H](CCC(N)=O)NC(=O)[C@H]([C@@H](C)O)NC(=O)[C@@H]2CCCN2C(=O)[C@@H]2CCCN2C1=O [3BP-3514, Pentyl-SO2-[Cys(3MeBn)-Pro-Pro-Thr-Gln-Phe-Cys]-Asp-NH2] (Pentanesulfonyl-CPPTQFCD-NH2; linker 1-7 via mXylylene)
< 10 nM: IC50 [1] | Kd [2] | IC50 [3]

CCCCCC(=O)N[C@H]1CSCc2cc(cc(CN3CCN(C(=O)CN4CCN5CCN6CCN(CC4)CC(=O)[O][Lu]([O]C(=O)C6)[O]C(=O)C5)CC3)c2)CSC[C@@H](C(=O)N[C@@H](CC(=O)O)C(N)=O)NC(=O)[C@H](Cc2ccccc2)NC(=O)[C@H](CCC(N)=O)NC(=O)[C@H]([C@@H](C)O)NC(=O)[C@@H]2CCCN2C(=O)[C@@H]2CCCN2C1=O [3BP-3591, Lutetium-Complex of Hex-[Cys(tMeBn(DOTA-PP))-Pro-Pro-Thr-Gln-Phe-Cys]-Asp-NH2] (Hexanoyl-CPPTQFCD-NH2; linker 1-7 via X22)
< 10 nM: IC50 [1] | Kd [2] | IC50 [3]

CCCCCC(=O)N[C@H]1CSCc2cc(cc(CN3CCN(C(=O)CN4CCN5CCN6CCN(CC4)CC(=O)[O][Ga]([O]C(=O)C6)[O]C(=O)C5)CC3)c2)CSC[C@@H](C(=O)N[C@@H](CC(=O)O)C(N)=O)NC(=O)[C@H](Cc2ccccc2)NC(=O)[C@H](CCC(N)=O)NC(=O)[C@H]([C@@H](C)O)NC(=O)[C@@H]2CCCN2C(=O)[C@@H]2CCCN2C1=O [3BP-3592, Gallium-Complex of Hex-[Cys(tMeBn(DOTA-PP))-Pro-Pro-Thr-Gln-Phe-Cys]-Asp-NH2] (Hexanoyl-CPPTQFCD-NH2; linker 1-7 via X8)
< 10 nM: IC50 [1] | Kd [2] | IC50 [3]

CCCCCC(=O)N[C@H]1CSCc2cc(CSCCNC(=O)CN3CCN(CC(=O)O)CCN(CC(=O)O)CCN(CC(=O)O)CC3)cc(c2)CSC[C@@H](C(=O)O)NC(=O)[C@H](Cc2cccc3ccccc23)NC(=O)[C@H](CCC(N)=O)NC(=O)[C@H]([C@@H](C)O)NC(=O)[C@@H]2CCCN2C(=O)[C@@H]2CCCN2C1 [3BP-3650, Hex-[Cys(tMeBn(DOTA-AET))-Pro-Pro-Thr-Gln-1Ni-Cys]-OH]
< 10 nM: IC50 [1] | Kd [2] | IC50 [3]

CCCCCC(=O)N[C@H]1CSCc2cc(CSCCNC(=O)CN3CCN(CC(=O)O)CCN(CC(=O)O)CCN(CC(=O)O)CC3)cc(c2)CSC[C@@H](C(=O)NCCC(=O)O)NC(=O)[C@H](Cc2ccccc2)NC(=O)[C@H](CCC(N)=O)NC(=O)[C@H]([C@@H](C)O)NC(=O)[C@@H]2CCCN2C(=O)[C@@H]2CCCN2C1=O [3BP-3651, Hex-[Cys(tMeBn(DOTA-AET))-Pro-Pro-Thr-Gln-Phe-Cys]-Bal-OH]
< 10 nM: IC50 [1] | Kd [2] | IC50 [3]

CCCCCC(=O)N[C@H]1CSCc2cc(CSCCNC(=O)CN3CCN(CC(=O)O)CCN(CC(=O)O)CCN(CC(=O)O)CC3)cc(c2)CSCCNC(=O)[C@H](Cc2ccccc2)NC(=O)[C@H](CCC(N)=O)NC(=O)[C@H]([C@@H](C)O)NC(=O)[C@@H]2CCCN2C(=O)[C@@H]2CCCN2C1=O [3BP-3654, Hex-[Cys(tMeBn(DOTA-AET))-Pro-Pro-Thr-Gln-Phe-AET]] (Hexanoyl-CPPTQF; linker 1-C via X13)
< 10 nM: IC50 [1] | Kd [2] | IC50 [3]

CCCCCC(=O)N[C@H]1CSCc2cc(CSCCNC(=O)CN3CCN(CC(=O)O)CCN(CC(=O)O)CCN(CC(=O)O)CC3)cc(c2)CSC[C@@H](C(=O)NCC(=O)O)NC(=O)[C@H](Cc2ccccc2)NC(=O)[C@H](CCC(N)=O)NC(=O)[C@H]([C@@H](C)O)NC(=O)[C@@H]2CCCN2C(=O)[C@@H]2CCCN2C1 [3BP-3656, Hex-[Cys(tMeBn(DOTA-AET))-Pro-Pro-Thr-Gln-Phe-Cys]-Gly-OH]
< 10 nM: IC50 [1] | Kd [2] | IC50 [3]

CCCCCC(=O)N[C@H]1CSCc2cc(CSCCNC(=O)CN3CCN(CC(=O)O)CCN(CC(=O)O)CCN(CC(=O)O)CC3)cc(c2)CSC[C@@H](C(=O)NCCCC(=O)O)NC(=O)[C@H](Cc2ccccc2)NC(=O)[C@H](CCC(N)=O)NC(=O)[C@H]([C@@H](C)O)NC(=O)[C@@H]2CCCN2C(=O)[C@@H]2CCCN2C1 [3BP-3657, Hex-[Cys(tMeBn(DOTA-AET))-Pro-Pro-Thr-Gln-Phe-Cys]-Gab-OH]
< 10 nM: IC50 [1] | Kd [2] | IC50 [3]
